Among the test systems are A498 renal; CAKI-1 renal; DU-145 prostate; HL-60(TB) leukemia; HS 578T breast; OVCAR-4 ovarian; RPMI-8226 leukemia; SF-539 CNS; SK-MEL-2 melanoma; SW-620 colon; LOX IMVI melanoma.
What all share (assay): growth of human tumour cells (NCI), 48 h

Several values for one entry are separate records, joined by “and”; a condition that tells them apart may be missing. Identical values can stand only once.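 Method: 48-hour compound exposure of cells in 96-well plates, five concentrations, linear interpolation of endpoints. The concentration for 50% growth inhibition is given as GI50. TGI marks complete inhibition of growth.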 Bounds are passed on as bounds.

Consider `C=C(C)C1CC/C(C)=C/CC[C@]2(C)O[C@H]2CC/C(COC(C)=O)=C\[C@@H]1O` (stereo partly specified), for which the TGI in the experiment with A498 renal, in the experiment with CAKI-1 renal, in the experiment with DU-145 prostate, with HL-60(TB) leukemia, with HS 578T breast and in the experiment on OVCAR-4 ovarian was greater than 50 µM throughout. For the same compound, the TGI in the experiment with RPMI-8226 leukemia, in the experiment on SF-539 CNS, in the experiment with SK-MEL-2 melanoma and in the experiment with SW-620 colon was greater than 50 µM each time. In the experiment on HS 578T breast, the GI50 was 8.27 µM.

Turning to `CN(C)CC1COC2Cc3ccccc3C1O2` (stereo unspecified), the TGI with A498 renal, in the experiment on CAKI-1 renal, in the experiment on DU-145 prostate, in the experiment on HL-60(TB) leukemia, with HS 578T breast and with LOX IMVI melanoma was greater than 100 µM in each case. The TGI in the experiment on OVCAR-4 ovarian, in the experiment on RPMI-8226 leukemia, in the experiment on SF-539 CNS and in the experiment on SK-MEL-2 melanoma was greater than 100 µM throughout.

As to `Brc1c(C#CCC(c2ccccc2)(c2ccccc2)c2ccccc2)ccc(C#CCC(c2ccccc2)(c2ccccc2)c2ccccc2)c1Br`, the TGI in the experiment on A498 renal, in the experiment with CAKI-1 renal, in the experiment on DU-145 prostate, in the experiment with HL-60(TB) leukemia, with HS 578T breast and in the experiment on OVCAR-4 ovarian was greater than 100 µM throughout. Besides, the TGI in the experiment with RPMI-8226 leukemia, in the experiment on SF-539 CNS, in the experiment on SK-MEL-2 melanoma and with SW-620 colon was greater than 100 µM throughout.

On to `O=C1CC(=O)NC(=NN2C(=O)/C(=C/c3ccccc3)N=C2c2ccccc2)N1`, for which the TGI with A498 renal, in the experiment with CAKI-1 renal, in the experiment with DU-145 prostate, with HS 578T breast, with OVCAR-4 ovarian and in the experiment on RPMI-8226 leukemia was greater than 100 µM each time. Besides, the TGI with SF-539 CNS, with SK-MEL-2 melanoma and in the experiment on SW-620 colon was greater than 100 µM in each case.

Consider `COC1C(O)C(C)OC(OC2C(Oc3cccc4c(O)c5c(=O)oc6ccc(C)c7c(=O)oc(c34)c5c67)OC(C)C(O)C2O)C1O` (stereo unspecified), for which the GI50 in the experiment on A498 renal was 1.22 µM; in the experiment on HL-60(TB) leukemia, 4.08 µM; in the experiment on LOX IMVI melanoma it was 0.688 µM; with OVCAR-4 ovarian it was 11.5 µM; in the experiment on RPMI-8226 leukemia it was 1.25 µM; in the experiment on SF-539 CNS, 1.19 µM. The GI50 in the experiment with SK-MEL-2 melanoma is 0.695 µM; with SW-620 colon, 1.28 µM. The TGI in the experiment on A498 renal was 4.04 µM and 5.15 µM; in the experiment on DU-145 prostate it was 53.6 µM; with HL-60(TB) leukemia, 27.4 µM and 6.95 µM; in the experiment on HS 578T breast, 20.4 µM; in the experiment on LOX IMVI melanoma, 7.55 µM and 10.5 µM; in the experiment with OVCAR-4 ovarian it was 35.1 µM and 18.3 µM. Moreover, the TGI was 15.9 µM and 6.88 µM in the experiment on RPMI-8226 leukemia; 5.52 µM and 5.55 µM in the experiment on SF-539 CNS; 1.93 µM and 2.56 µM in the experiment on SK-MEL-2 melanoma; 63.8 µM and 20.5 µM with SW-620 colon.

Turning to `C/C=C\C(CC(=O)NCCC1CN(S(=O)(=O)C(F)(F)F)c2ccccc21)CC(=O)OC` (stereo unspecified), the TGI is greater than 100 µM with A498 renal; greater than 100 µM in the experiment with CAKI-1 renal; greater than 100 µM with DU-145 prostate; 72.3 µM with HS 578T breast; greater than 100 µM in the experiment with OVCAR-4 ovarian; greater than 100 µM in the experiment with RPMI-8226 leukemia. Also, the TGI was 94 µM in the experiment on SK-MEL-2 melanoma and greater than 100 µM in the experiment with SW-620 colon.

As for `CN1CCCCC(C#N)(c2ccccc2)CC1` (stereo unspecified), the TGI in the experiment on A498 renal, in the experiment on CAKI-1 renal, in the experiment with DU-145 prostate, in the experiment with HL-60(TB) leukemia, in the experiment on HS 578T breast and with OVCAR-4 ovarian was greater than 100 µM each time. In addition, the TGI in the experiment with RPMI-8226 leukemia and with SW-620 colon was greater than 100 µM each time.

For the compound `CC(C)(C)OC(=O)N(O)CCCn1cnc2c(N)ncnc21`, the TGI with A498 renal, in the experiment on DU-145 prostate, in the experiment on HS 578T breast, in the experiment on LOX IMVI melanoma, in the experiment with OVCAR-4 ovarian and in the experiment with RPMI-8226 leukemia was greater than 100 µM each time. Moreover, the TGI with SF-539 CNS, in the experiment on SK-MEL-2 melanoma and in the experiment on SW-620 colon was greater than 100 µM in each case.

Consider `N#CC(=C1CCCCC1)c1nc2ccccc2o1`, for which the TGI in the experiment with A498 renal was greater than 100 µM; in the experiment on CAKI-1 renal it was greater than 100 µM; in the experiment on DU-145 prostate it was greater than 100 µM; with HL-60(TB) leukemia, 75 µM; in the experiment on HS 578T breast, greater than 100 µM; in the experiment with OVCAR-4 ovarian, greater than 100 µM. Further, the TGI in the experiment with RPMI-8226 leukemia was 71.3 µM; in the experiment with SF-539 CNS, 64.4 µM; with SK-MEL-2 melanoma, greater than 100 µM.

For the compound `O=C1N2CCc3c([nH]c4ccccc34)C23CC2CCCCC12S3` (stereo unspecified), the TGI in the experiment on A498 renal, in the experiment with CAKI-1 renal, with DU-145 prostate, with HL-60(TB) leukemia, in the experiment on HS 578T breast and in the experiment with LOX IMVI melanoma was greater than 100 µM throughout. For the same compound, the TGI in the experiment on OVCAR-4 ovarian, with RPMI-8226 leukemia, with SF-539 CNS and with SW-620 colon was greater than 100 µM each time.

In the case of `O=C1O[C@H]2[C@H](O)[C@@H](OC(=O)c3cc(O)c(O)c4c3[C@@H]3C1=CC(=O)C(O)(O)C3(O)O4)[C@H](OC(=O)c1cc(O)c(O)c(O)c1)O[C@@H]2CO` (stereo partly specified), the TGI in the experiment on A498 renal, in the experiment on CAKI-1 renal, with DU-145 prostate, with HL-60(TB) leukemia, with HS 578T breast and in the experiment with LOX IMVI melanoma was greater than 100 µM throughout. The TGI in the experiment on OVCAR-4 ovarian, with RPMI-8226 leukemia, in the experiment on SK-MEL-2 melanoma and in the experiment with SW-620 colon was greater than 100 µM throughout.

As for `CC(=O)Oc1cc2c(c3ncccc13)OC(C)(C)C2`, the TGI is 33 µM with A498 renal; 21.3 µM with CAKI-1 renal; 28.7 µM in the experiment with DU-145 prostate; 24.9 µM in the experiment with HS 578T breast; 25.5 µM in the experiment on OVCAR-4 ovarian; greater than 100 µM in the experiment with RPMI-8226 leukemia. The TGI is 26.9 µM with SF-539 CNS, 44.6 µM with SK-MEL-2 melanoma and greater than 100 µM with SW-620 colon.

These data come from PubChem BioAssay (NCI).
